Data from ChEMBL document CHEMBL1201862, “PubChem BioAssay data set” (2004).
Calls of active or inactive are those of the source.

Tests used:
[1] = test system: Streptococcus sp. 'group A'; test: Streptococcus pyogenes SK(-)GAS viability under kanamycin – luminescence, BacTiterGlo, confirmation, counter-screen for streptokinase expression inhibitor project, dose response (AID 1900); assay type: functional, organism-based
[2] = Counterscreen for AddAB inhibitors: absorbance-based bacterial cell-based high throughput dose response assay for inhibitors of bacterial viability. [Related pubchem assays (depositor defined):AID435030, AID449728, AID449731, AID488942, AID488955, AID488956]; assay type: functional
Streptokinase A = molecular target: T1, Streptokinase A (Streptococcus pyogenes serotype M1, UniProt P10520); test: viability-normalized secreted streptokinase activity reduction – plasminogen activation absorbance, OD405, dose response (AID 1914); assay type: functional, Streptococcus pyogenes M1 GAS;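 further: secreted streptokinase activity via plasminogen activation per viability signal from cell pellet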
T1 sequence (P10520 whole entry): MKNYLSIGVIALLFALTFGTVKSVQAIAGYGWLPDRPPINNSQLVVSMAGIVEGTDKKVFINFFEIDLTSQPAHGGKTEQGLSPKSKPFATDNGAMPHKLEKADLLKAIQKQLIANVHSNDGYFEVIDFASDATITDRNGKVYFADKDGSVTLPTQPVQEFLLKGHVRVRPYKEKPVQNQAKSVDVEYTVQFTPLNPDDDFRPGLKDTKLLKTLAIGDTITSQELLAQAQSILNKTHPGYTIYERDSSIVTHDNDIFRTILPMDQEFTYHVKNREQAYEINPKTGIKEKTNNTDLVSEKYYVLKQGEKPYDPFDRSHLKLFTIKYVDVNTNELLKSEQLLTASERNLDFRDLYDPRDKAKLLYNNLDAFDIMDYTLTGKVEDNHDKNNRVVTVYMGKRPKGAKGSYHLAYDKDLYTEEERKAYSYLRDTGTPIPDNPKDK

Exodeoxyribonuclease V = molecular target: T2, Exodeoxyribonuclease V (Escherichia coli (strain K12), UniProt P04993+P07648+P08394); test: RecBCD inhibition via phage-restricted bacterial growth – absorbance, V66 E. coli, mutant T4 phage, counter-screen for AddAB inhibitor project, dose response (AID 492957); assay type: functional, cell-based, Escherichia coli str. K-12 substr. MG1655
T2 sequence (P04993 whole entry): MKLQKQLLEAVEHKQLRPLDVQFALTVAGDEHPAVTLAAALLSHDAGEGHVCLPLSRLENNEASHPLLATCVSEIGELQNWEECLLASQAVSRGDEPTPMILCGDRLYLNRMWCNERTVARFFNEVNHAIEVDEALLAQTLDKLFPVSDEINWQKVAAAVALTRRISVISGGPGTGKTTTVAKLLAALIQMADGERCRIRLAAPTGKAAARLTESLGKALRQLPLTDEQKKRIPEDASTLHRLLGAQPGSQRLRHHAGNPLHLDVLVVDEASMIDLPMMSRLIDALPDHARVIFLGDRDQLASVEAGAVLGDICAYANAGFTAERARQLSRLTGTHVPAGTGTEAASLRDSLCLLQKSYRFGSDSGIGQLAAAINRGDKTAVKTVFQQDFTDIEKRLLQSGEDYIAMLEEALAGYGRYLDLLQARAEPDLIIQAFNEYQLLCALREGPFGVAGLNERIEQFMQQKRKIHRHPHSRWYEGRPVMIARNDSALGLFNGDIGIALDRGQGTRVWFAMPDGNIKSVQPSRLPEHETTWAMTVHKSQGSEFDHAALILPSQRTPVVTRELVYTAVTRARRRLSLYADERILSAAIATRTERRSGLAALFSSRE
T2 sequence (P07648 whole entry): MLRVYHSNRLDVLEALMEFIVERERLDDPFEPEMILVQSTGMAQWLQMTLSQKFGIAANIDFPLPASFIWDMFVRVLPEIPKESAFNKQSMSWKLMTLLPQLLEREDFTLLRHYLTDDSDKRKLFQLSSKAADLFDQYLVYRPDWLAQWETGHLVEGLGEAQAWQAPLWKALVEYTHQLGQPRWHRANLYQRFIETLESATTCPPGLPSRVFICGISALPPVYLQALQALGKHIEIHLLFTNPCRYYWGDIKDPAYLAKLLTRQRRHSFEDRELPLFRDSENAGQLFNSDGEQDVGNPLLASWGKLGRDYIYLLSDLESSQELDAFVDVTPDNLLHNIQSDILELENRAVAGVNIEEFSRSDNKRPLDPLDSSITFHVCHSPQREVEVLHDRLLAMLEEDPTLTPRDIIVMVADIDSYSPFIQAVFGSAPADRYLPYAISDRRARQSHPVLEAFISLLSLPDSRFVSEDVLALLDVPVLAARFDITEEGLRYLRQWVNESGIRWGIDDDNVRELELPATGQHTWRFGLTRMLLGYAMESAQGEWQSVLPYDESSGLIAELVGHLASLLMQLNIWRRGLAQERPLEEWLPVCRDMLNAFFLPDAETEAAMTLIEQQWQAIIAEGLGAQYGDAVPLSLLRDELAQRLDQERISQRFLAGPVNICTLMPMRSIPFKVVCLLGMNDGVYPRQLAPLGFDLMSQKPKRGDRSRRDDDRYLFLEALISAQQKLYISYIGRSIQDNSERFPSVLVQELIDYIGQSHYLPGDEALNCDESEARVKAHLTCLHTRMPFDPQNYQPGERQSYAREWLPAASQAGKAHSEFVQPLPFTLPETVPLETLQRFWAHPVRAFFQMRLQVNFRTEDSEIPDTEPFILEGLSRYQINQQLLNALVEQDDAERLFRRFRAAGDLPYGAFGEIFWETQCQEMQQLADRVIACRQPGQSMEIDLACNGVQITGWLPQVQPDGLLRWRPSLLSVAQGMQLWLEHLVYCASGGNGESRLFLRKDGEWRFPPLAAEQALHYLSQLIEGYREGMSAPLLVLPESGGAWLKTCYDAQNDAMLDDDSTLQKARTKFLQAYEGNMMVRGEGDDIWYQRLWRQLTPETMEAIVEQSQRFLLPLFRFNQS
T2 sequence (P08394 whole entry): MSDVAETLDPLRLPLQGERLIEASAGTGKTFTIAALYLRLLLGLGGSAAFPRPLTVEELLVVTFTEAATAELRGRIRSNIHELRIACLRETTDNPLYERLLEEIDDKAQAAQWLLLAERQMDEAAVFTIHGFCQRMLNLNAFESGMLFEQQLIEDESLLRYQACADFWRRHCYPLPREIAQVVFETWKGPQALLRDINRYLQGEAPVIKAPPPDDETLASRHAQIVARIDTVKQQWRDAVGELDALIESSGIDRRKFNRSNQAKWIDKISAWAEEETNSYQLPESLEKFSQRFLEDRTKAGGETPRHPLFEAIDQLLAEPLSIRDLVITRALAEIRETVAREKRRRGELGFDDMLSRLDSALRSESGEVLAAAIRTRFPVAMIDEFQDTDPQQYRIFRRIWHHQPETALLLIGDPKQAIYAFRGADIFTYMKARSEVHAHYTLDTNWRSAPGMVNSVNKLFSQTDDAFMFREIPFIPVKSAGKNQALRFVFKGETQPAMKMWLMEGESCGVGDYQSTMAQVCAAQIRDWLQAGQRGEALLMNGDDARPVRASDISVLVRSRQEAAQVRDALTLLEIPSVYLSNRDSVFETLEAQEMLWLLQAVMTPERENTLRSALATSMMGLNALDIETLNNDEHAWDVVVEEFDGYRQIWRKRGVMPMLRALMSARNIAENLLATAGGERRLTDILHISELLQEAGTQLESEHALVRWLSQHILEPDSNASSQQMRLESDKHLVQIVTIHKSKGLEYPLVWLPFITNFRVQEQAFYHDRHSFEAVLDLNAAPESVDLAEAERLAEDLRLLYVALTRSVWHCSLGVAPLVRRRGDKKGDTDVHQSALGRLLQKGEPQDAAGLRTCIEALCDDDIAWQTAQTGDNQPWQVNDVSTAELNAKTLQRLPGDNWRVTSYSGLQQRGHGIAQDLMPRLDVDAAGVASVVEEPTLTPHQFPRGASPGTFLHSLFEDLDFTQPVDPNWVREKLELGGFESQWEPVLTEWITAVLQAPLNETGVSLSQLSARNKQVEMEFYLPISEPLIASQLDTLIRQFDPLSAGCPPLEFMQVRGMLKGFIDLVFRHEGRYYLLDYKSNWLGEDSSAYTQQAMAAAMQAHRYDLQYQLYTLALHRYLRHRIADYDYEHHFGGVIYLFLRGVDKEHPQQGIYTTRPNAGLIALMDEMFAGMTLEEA

Streptococcus = test: GAS UMAA2166 growth inhibition – luminescence, BacTiterGlo, counter-screen for streptokinase expression inhibitor project, dose response (AID 1915); assay type: functional, organism-based;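 further: potency for reduction of bacterial viability or growth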
[3] = viability loss in HeLa cells – cytotoxicity control for MgcRacGAP inhibitor project, dose response (AID 624300); assay type: functional
[4] = Luminescence Cell-Based Dose Retest to Confirm Inhibitors of Cancer Stem Cells. [Related pubchem assays (depositor defined):AID2717, AID2721]; assay type: functional; conditions: Homo sapiens
[5] = viability loss of HMLE_sh_eGFP cells – cell-based, luminescence, counter-screen for HMLE_sh_ECad selective toxicity project, dose response (AID 463074); assay type: functional, Homo sapiens;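 further: HMLE human mammary epithelial cells expressing control shRNA against eGFP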
INS1 = test: INS-1E survival protection against cytokine death – cell-based, luminescence, retest, dose response (AID 449756); assay type: functional; conditions: Rattus norvegicus;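 further: cell death triggered by IL-1 beta plus TNF-alpha plus IFN-gamma mixture; protective hits raise ATP signal compared with cytokine alone wells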
[6] = molecular target: T3, Endoribonuclease toxin MazF (Escherichia coli K-12, UniProt P0AE70); test: substrate-only fluorescence increase artefacts – biochemical, single-stranded RNase substrate, counter-screen for MazEF activator project, dose response (AID 588502); assay type: functional
T3 sequence (P0AE70 whole entry): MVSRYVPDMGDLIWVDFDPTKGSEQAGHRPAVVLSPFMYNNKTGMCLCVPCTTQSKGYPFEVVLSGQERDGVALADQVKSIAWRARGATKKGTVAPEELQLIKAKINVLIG

[7] = molecular target: T3, Endoribonuclease toxin MazF; test: activation of MazEF endoribonuclease cleavage – biochemical, fluorescence, single-stranded RNA substrate, uHTS hits, dose response (AID 588481); assay type: functional
[8] = DRD fibroblast viability loss – cell-based, non-viral oncogenic, luminescence, dose response (AID 1934); assay type: functional; conditions: Homo sapiens
BJ [9] = test: BJ-TERT fibroblast viability loss – cell-based, RAS-independent, luminescence, dose response (AID 1933); assay type: functional; conditions: Homo sapiens
BJ [10] = test: BJ-TERT-LT-ST fibroblast viability loss – cell-based, RAS-independent, luminescence, dose response (AID 1935); assay type: functional; conditions: Homo sapiens;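 further: BJ fibroblasts immortalized with TERT plus LT and ST oncogenes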
BJ [11] = test: cells; assay type: functional, cell-based; conditions: Homo sapiens

For `O=C(NC(NC(=S)Nc1ccc(Cl)c(Cl)c1)C(Cl)(Cl)Cl)c1ccco1` (stereo unspecified), the EC50 [1] was 4.32 µM (active), the IC50 [2] was > 119 µM (inactive) and the EC50 (Streptokinase A) was 10.9 µM (active). The IC50 (Exodeoxyribonuclease V) was > 119 µM (inactive), the EC50 (Streptococcus) was 10.9 µM (active) and the CC50 [3] was 57.7 µM (active).
For `Cc1cc(N/N=C/c2ccc([N+](=O)[O-])o2)nc2ccccc12`, the IC50 [2] was > 118 µM (inactive) and the IC50 (Exodeoxyribonuclease V) was > 118 µM (inactive).
In the case of `Cc1ccc(N/N=C(\Cc2nc3ccccc3[nH]2)c2ccccc2)cc1`, the AC50 [4] is reported as 0.47 µM (active) and the AC50 [5] is reported as 0.385 µM (inconclusive).
In the case of `C=CCc1cccc(/C=N/NC(=O)CCC(=O)Nc2ccc(F)cc2)c1O`, the IC50 [2] is reported as > 119 µM (inactive), the IC50 (Exodeoxyribonuclease V) is reported as > 119 µM (inactive) and the AC50 (INS1) is reported as 3.18 µM (active).
For `O=[N+]([O-])c1ccc2[nH]c(O)c(N=Nc3ccc(F)cc3)c2c1`, the EC50 [6] was 20.3 µM (inactive) and the EC50 [7] was > 99 µM (inactive).
For `Cc1cccc(NC(=S)N/N=C/c2cccc(O)c2)c1C`, the EC50 [8] was 2.75 µM (active), the EC50 (BJ [9]) was 11.3 µM (active) and the EC50 (BJ [10]) was 2.91 µM (active). For the same compound, the AC50 [4] was 1.15 µM (active), the EC50 (BJ [11]) was 26 µM (inconclusive) and the AC50 [5] was 33.7 µM (active).
